Earlier results in US12498364B2, “Use of soluble urokinase plasminogen activator receptor levels to indicate prevention of cardiovascular disease with a statin” (The Regents of the University of Michigan, priority 2019, dated 2025).
Entries after “also recorded” stand apart in the source; their conditions may differ.

Legend:
[1] = cited from earlier work
interleukin 1β = target: T1, interleukin 1β (Homo sapiens, UniProt P01584); settings: patients with heart disease and hs-CRP>2.0 mg/L; cited from earlier work
T1 construct: host or cells: patients (in vivo, endogenous cytokine)

## CC(=O)S[C@@H]1CC2=CC(=O)CC[C@]2(C)[C@H]2CC[C@@]3(C)[C@@H](CC[C@@]34CCC(=O)O4)[C@H]12 [spironolactone]
[1]; overall study, HFpEF
  incidence of the primary outcome: did not decrease the incidence of the primary outcome
[1]; post-hoc, North American patients
  incidence of cardiovascular events compared to placebo: lower incidence of cardiovascular events

## canakinumab
Interleukin 1β
  hs-CRP compared to placebo: reduction in hs-CRP
  rate of cardiovascular events compared to placebo: lower rate of cardiovascular events; also recorded: reduced risk of adverse cardiovascular events
